Test results reported in ChEMBL document CHEMBL1201862, “PubChem BioAssay data set” (2004).
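A five-concentration, 48-hour dose response in 96-well plates underlies each endpoint, interpolated linearly between surrounding concentrations. GI50 marks 50% less growth.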 The source made the active and inactive calls. No stated cut-off is given here; in the data, active = GI50 up to about 1.1 µM and inactive = higher.

How the values were obtained:
Test in all cases: NCI-60 cell line screen, 48 h
[1] = system: A549
[2] = system: BT-549
[3] = system: HCC 2998
[4] = system: HCT-116
[5] = system: HOP-62
[6] = system: KM12
[7] = system: M14
[8] = system: MDA-MB-231
[9] = system: MOLT-4
[10] = system: NCI/ADR-RES
[11] = system: OVCAR-4
[12] = system: SF-268
[13] = system: SK-MEL-2
[14] = system: SK-MEL-5
[15] = system: SNB-19
[16] = system: SR
[17] = system: SW-620
[18] = system: UACC-257
[19] = system: NCI-H522
[20] = system: RXF 393

Measured: GI50

Oc1c(Br)cc(/C=C/c2cccc(/C=C/c3cc(Br)c(O)c(Br)c3)n2)cc1Br
inactive: [1] 3.72 µM | [2] 26.1 µM | [3] 6.5 µM | [4] 8.81 µM | [5] 31.6 µM | [6] 5.66 µM | [7] 13.8 µM | [8] 14.8 µM | [9] 3.43 µM | [10] 21.6 µM | [11] 13.3 µM | [12] 15 µM | [13] 4.89 µM | [14] 7.06 µM | [15] 9.98 µM | [16] 5.15 µM | [17] 17.7 µM | [18] 15.7 µM

Cc1ccc(/C=C2\CN(C)CC3C2=NN(c2ccccc2)C3c2ccc(C)cc2)cc1 (stereo unspecified)
inactive: [1] > 100 µM | [2] > 100 µM | [3] > 100 µM | [4] > 100 µM | [5] > 100 µM | [6] > 100 µM | [7] 57.4 µM | [8] > 100 µM | [9] 36.4 µM | [19] > 100 µM | [10] > 100 µM | [11] > 100 µM | [20] 34.4 µM | [12] > 100 µM | [13] 29.4 µM | [14] > 100 µM | [15] 74.6 µM | [17] > 100 µM | [18] > 100 µM

CC(C)=CCC[C@](C)(O[C@@H]1O[C@H](CO)[C@@H](O)[C@H](O)[C@H]1O)[C@H]1CC[C@]2(C)[C@@H]1[C@H](O)C[C@@H]1[C@@]3(C)CC[C@H](O)C(C)(C)[C@@H]3[C@@H](O[C@@H]3O[C@H](CO)[C@@H](O)[C@H](O)[C@H]3O[C@@H]3O[C@@H](C)[C@H](O)[C@@H](O)[C@H]3O)C[C@]12C.CC(C)=CCC[C@](C)(O[C@@H]1O[C@H](CO)[C@@H](O)[C@H](O)[C@H]1O)[C@H]1CC[C@]2(C)[C@@H]1[C@H](O)C[C@@H]1[C@@]3(C)CC[C@H](O)C(C)(C)[C@@H]3[C@@H](O[C@@H]3O[C@H](CO)[C@@H](O)[C@H](O)[C@H]3O[C@@H]3O[C@H](CO)[C@@H](O)[C@H](O)[C@H]3O)C[C@]12C
inactive: [1] > 75 µM | [2] 28.2 µM | [3] > 75 µM | [4] > 75 µM | [5] 22.9 µM | [6] > 75 µM | [7] > 75 µM | [8] > 75 µM | [9] > 75 µM | [19] > 75 µM | [10] > 75 µM | [11] > 75 µM | [12] 54.3 µM | [13] > 75 µM | [14] > 75 µM | [15] > 75 µM | [16] 29.2 µM | [17] > 75 µM | [18] > 75 µM

O=C(O)CN1CCN2CCOCCOCCN(CC1)CCN(CC(=O)O)CC2
inactive: [1] > 100 µM | [2] > 100 µM | [4] > 100 µM | [5] > 100 µM | [6] > 100 µM | [7] > 100 µM | [8] > 100 µM | [19] > 100 µM | [10] > 100 µM | [11] > 100 µM | [13] > 100 µM | [14] > 100 µM | [15] > 100 µM | [16] > 100 µM | [17] > 100 µM | [18] > 100 µM

O=C(C=P(c1ccccc1)(c1ccccc1)c1ccccc1)C12CC3CC(CC(C3)C1)C2
inactive: [1] 16.7 µM | [2] 18.2 µM | [3] 16.8 µM | [4] 13.2 µM | [5] 17.2 µM | [6] 15 µM | [7] 16 µM | [8] 15.7 µM | [19] 6.55 µM | [10] 16.5 µM | [11] 18.7 µM | [12] 20.8 µM | [13] 15.8 µM | [14] 14.8 µM | [15] 12.6 µM | [16] 55 µM | [17] 16.1 µM | [18] 17.2 µM

Nc1nc(NNc2ccccc2F)cc(=O)[nH]1
inactive: [1] > 100 µM | [2] > 100 µM | [3] > 100 µM | [4] > 100 µM | [5] > 100 µM | [6] > 100 µM | [7] > 100 µM | [8] > 100 µM | [9] > 100 µM | [10] > 100 µM | [11] > 100 µM | [14] > 100 µM | [15] > 100 µM | [16] > 100 µM | [17] > 100 µM | [18] > 100 µM

O=C(COc1ccc(OCC(=O)N2C(=O)CN(c3ccc(Cl)cc3)C2=S)cc1)N1C(=O)CN(c2ccc(Cl)cc2)C1=S
inactive: [1] 21.5 µM | [2] 31.5 µM | [3] 21.7 µM | [4] 15.7 µM | [6] 18.9 µM | [7] 29 µM | [8] 19.8 µM | [9] 33.7 µM | [19] 26.5 µM | [10] 28.7 µM | [11] 25.9 µM | [20] 22.8 µM | [12] 27.2 µM | [13] 13.3 µM | [14] 16.2 µM | [15] 24.4 µM | [17] 31.3 µM | [18] 27.8 µM

CC1(C)COC(c2cccc(C3=NC(C)(C)CO3)c2)=N1
inactive: [1] > 100 µM | [2] > 100 µM | [3] > 100 µM | [4] > 100 µM | [5] > 100 µM | [6] > 100 µM | [7] > 100 µM | [8] > 100 µM | [9] > 100 µM | [10] > 100 µM | [11] 83.9 µM | [12] > 100 µM | [13] > 100 µM | [14] > 100 µM | [15] > 100 µM | [16] > 100 µM | [17] > 100 µM | [18] > 100 µM

CC(=O)C1COC(O)C1C (stereo unspecified)
inactive: [1] 53.8 µM | [2] 30 µM | [4] 18.4 µM | [5] 16.3 µM | [6] 13.6 µM | [7] 23.9 µM | [8] 22.2 µM | [9] 17.9 µM | [10] 18.5 µM | [12] 17.3 µM | [13] 15.3 µM | [14] 16 µM | [15] 31.1 µM | [16] 11.5 µM | [17] 18 µM | [18] 32.2 µM

C=CCN1C[C@H](C)N([C@H](c2ccc(C(=O)N(CC)CCO)cc2)c2cccc(OC)c2)C[C@H]1C
inactive: [1] > 100 µM | [2] > 100 µM | [4] > 100 µM | [5] > 100 µM | [6] > 100 µM | [7] > 100 µM | [8] > 100 µM | [9] 51.5 µM | [19] > 100 µM | [10] > 100 µM | [11] > 100 µM | [12] > 100 µM | [13] > 100 µM | [14] 54.7 µM | [15] > 100 µM | [16] 51.3 µM | [17] > 100 µM | [18] 47 µM
